Data from US8927520B2, “Antibacterial compounds” (Institut Pasteur, priority 2010, dated 2015).

How the values were obtained:
[1] = test system: Staphylococcus aureus S25 strain; experiment: Bactericidal activity assay; type: cell-based; settings: S. aureus, overnight at 37° C., inhibitor 1 to 100 μg/mL, CFU count
Experimental: 100 μL suspensions of S. aureus corresponding to 2.10^3 bacteria were incubated overnight at 37° C. with increasing concentrations of inhibitor (1 to 100 μg/mL). Bacterial killing (percent) was determined as the ratio of colony forming units after incubation with inhibitor to that of colony forming units after incubation with buffer alone. Data are mean values ±SD from three separate experiments. * indicates a statistical significance in Student's t-test of p<0.05.
The Staphylococcus aureus S25 strain, a human clinical isolate, was grown overnight in brain heart infusion (BHI) broth at 200 rpm and 37° C. Overnight cultures were diluted to OD600nm=0.05 in BHI-phosphate buffer saline (25% v/v). Bacteria were grown at 200 rpm and 37° C. until cultures reached OD600nm=0.5. Bacterial suspensions were adjusted to a concentration of 2.10^5 bacteriamL. In a microtiter plate, 2.10^3 bacteria were incubated overnight at 200 rpm and 37° C. with increasing concentrations of NADK inhibitor in 0.1 mL BHI-phosphate buffer saline (25% v/v) per well. To quantify the bactericidal activity, each bacterial suspension was serially diluted in BHI and plated on BHI agar plates in duplicates. Plates were incubated at 37° C. for 24 h to 48 h and the number of colony forming units was determined.

[2] = target: LmNADK1 (NADK from Lysteria monocytogenes) (Listeria monocytogenes serovar 1/2a (strain ATCC BAA-679 / EGD-e), UniProt Q8Y8D7); experiment: NAD kinase activity assay (coupled Glucose-6-phosphate dehydrogenase, absorbance at 340 nm); type: biochemical; settings: for Ki: Dixon plots, 4 mM ATP, NAD 0.2, 0.5 and 1 mM, read-out: Ki, NADK from Lm; for Inhibition of LmNADK1 (in words): purified enzyme
Experimental: (§1) Expression, purification and activity assay. His-tagged LmNADK1 wild-type and His-tagged SaNADK were expressed and purified on cobalt-based IMAC resins (Clontech) as previously published^13. The NAD kinase activity was determined by measuring the absorbance at 340 nm to follow the formation of reduced NADP produced by a coupling enzyme (Glucose-6-phosphate dehydrogenase from yeast). Coupling enzyme and its substrate were purchased from Sigma-Aldrich. The assay was performed in a 0.5 mL sample of (50 mM Tris-HCl pH 7.4, 10 mM MgCl2, 1 mM Glucose-6-phosphate, 2 mM sodium citrate) containing Glucose-6-phosphate dehydrogenase and NADK at 30° C. using a spectrophotometer Eppendorf ECOM 6122.
(§2) For inhibitor assays, IC50 was determined, in the presence of 1 mM NAD and 4 mM ATP (for LmNADK1) or 2 mM ATP (for SaNADK). Dixon plots were used to determine KI in the presence of 4 mM ATP (for LmNADK11) or 2 mM ATP (for Sa NADK) and three NAD concentrations (0.2, 0.5 and 1 mM). It was also checked that the inhibitors had no effect on the coupling enzyme activity.

[3] = target: SaNADK (NADK from Staphylococcus aureus) (Staphylococcus aureus (strain COL), UniProt Q5HH78); experiment: as above; type: biochemical; settings: Dixon plots; 2 mM ATP; NAD 0.2, 0.5 and 1 mM; read-out: Ki, NADK from Sa
Experimental: as §1, §2

[4] = test system: Staphylococcus aureus S25 strain; settings: reference value for comparison; cited from earlier work
[5] = target: NADK from Listeria monocytogenes (Listeria monocytogenes serovar 1/2a (strain ATCC BAA-679 / EGD-e), UniProt Q8Y8D7); settings: literature value; read-out: K (affinity), inhibition of NADK; cited from earlier work

| Compound | Concentration giving significant bactericidal activity [1] | Ki [2] | Inhibition of LmNADK1 (in words) [2] | Ki [3] | Efficiency of reference compound (bactericidal concentration) [4] | Ki [5] |
| --- | --- | --- | --- | --- | --- | --- |
| 5′-Amino-5′-deoxyadenosin-8-yl-thio-N-[(5′-amino-5′-deoxy-adenosine)methyl]acetamide [Inhibitor 17] | 1 µg/mL | 30 µM | micromolar range | 50 µM |  |  |
| 8-[3-(Adenosin-5′-yl)methoxyprop-1-yn-1-yl]adenosine [Inhibitor 22] | 1 µg/mL | 20 µM | micromolar range | 15 µM |  |  |
| Nc1ncnc2c1ncn2[C@@H]1O[C@H](CNCC#Cc2nc3c(N)ncnc3n2[C@@H]2O[C@H](CO)[C@@H](O)[C@H]2O)[C@@H](O)[C@H]1O [Inhibitor 19, 8-[3-N-(5′-Deoxyadenosin-5′-yl)aminoprop-1-yn-1-yl]adenosine] | 10 µg/mL | 10 µM | micromolar range | 5 µM |  |  |
| CN[C@H](CC(C)C)C(=O)N[C@H]1C(=O)N[C@@H](CC(N)=O)C(=O)N[C@H]2C(=O)N[C@H]3C(=O)N[C@H](C(=O)N[C@H](C(=O)O)c4cc(O)cc(O)c4-c4cc3ccc4O)[C@H](O)c3ccc(c(Cl)c3)Oc3cc2cc(c3O[C@@H]2O[C@H](CO)[C@@H](O)[C@H](O)[C@H]2O[C@H]2C[C@](C)(N)[C@H](O)[C@H](C)O2)Oc2ccc(cc2Cl)[C@H]1O [vancomycin] |  |  |  |  | 8 µg/mL |  |
| Di-5′-thioadenosine [DTA] |  |  |  |  |  | ~20 µM |
